Patent US7514251B2, “O-methyltransferases of tetrahydrobenzylisoquinoline alkaloid biosynthesis in Papaver somniferum” (priority 2003, dated 2009)
Like-named read-outs stand apart in the source and are kept apart here. Marks after values point to notes of the source that are not given here.

What was measured:
Format in all cases: biochemical
[1] = molecular target: T1, PSOMT2 ((R,S)-norcoclaurine 6-O-methyltransferase) (Papaver somniferum, UniProt Q6WUC1); assay: HPLC-MS identification of enzymic products of PSOMT2; settings: HPLC-MS of enzymic product
T1 construct: The full-length cDNA generated by RT-PCR was ligated into pFastBac HTa; His6 (N); made in house; host or cells: Spodoptera frugiperda Sf9 (baculovirus, pFastBac HTa)
T1 sequence (Q6WUC1 1-346): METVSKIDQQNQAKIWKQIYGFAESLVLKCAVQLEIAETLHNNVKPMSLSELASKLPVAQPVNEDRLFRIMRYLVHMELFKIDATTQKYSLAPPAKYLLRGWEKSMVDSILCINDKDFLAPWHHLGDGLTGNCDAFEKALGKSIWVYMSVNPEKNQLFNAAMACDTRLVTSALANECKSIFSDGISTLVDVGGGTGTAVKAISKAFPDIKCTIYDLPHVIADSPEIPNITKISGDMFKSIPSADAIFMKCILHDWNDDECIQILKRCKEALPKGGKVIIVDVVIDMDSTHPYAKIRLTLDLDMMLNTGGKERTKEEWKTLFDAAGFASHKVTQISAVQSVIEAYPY
Description: (§1) The identity of the enzymic reaction products was ascertained by HPLC-MS using a Finnigan MAT TSQ 7000 (electrospray voltage 4.5 kV, capillary temperature 220° C., carrier gas N2) coupled to a Micro-tech Ultra-Plus Micro-LC equipped with an Ultrasep RP18 column; 5 μm; 1×10 mm), Solvent system (A) 99.8% (v/v) H2O, 0.2% HOAc (B) 99.8% CH3CN (v/v), 0.2% HOAc; gradient: 0-15 min 10-90% B, 15-25 min 90% B; flow 70 μl min^−1). The collision-induced dissociation (CID; collision energy, −25 eV; collision gas, argon; collision pressure, 1.8×10^−3 Torr) mass spectra for the tetrahydrobenzylisoquinoline alkaloids were recorded.
(§2) Structure Elucidation of Enzymic Products—Initial enzyme activity measurements were carried out using a radioassay. Many of the substrates tested contained more than one site of potential methylation. […] Tetrahydrobenzylisoquinolines readily cleave at low ionization energies into the corresponding isoquinoline- and benzyl ions. This enables identification of methylation at either moiety. Each alkaloidal substrate was monitored for purity by HLPC-MS and the fragmentation pattern was determined. Enzymic product fragmentation patterns were then compared to those of substrate. All substrates were methylated by either PSOMT1 or PSOMT2 on the isoquinoline moiety. For example, (R)- or (S)-reticuline ([M+H]^+ m/z 330) has the major fragment ions m/z 192 (isoquinoline) and m/z 137 (benzyl). The methylation of (R)- or (S)-reticuline by PSOMT1 results in a product of [M+H]^+ m/z 344 (methylated (R)- or (S)-reticuline) with fragment ions at m/z 206 (isoquinoline+CH2) and m/z 137 (unmodified benzyl). Likewise, (R,S)-norcoclaurine ([M+H]^+ m/z 272) has the major fragment ions m/z 161 (isoquinoline) and m/z 107 (benzyl). The methylation of (R,S)-norcoclaurine by PSOMT2 results in a product of [M+H]^+ m/z 286 (methylated (R,S)-norcoclaurine) with fragment ions at m/z 175 (isoquinoline+CH2) and m/z 107 (unmodified benzyl).

[2] = molecular target: T2, PSOMT1 ((R,S)-reticuline 7-O-methyltransferase) (Papaver somniferum, UniProt Q6WUC2); settings: for Substrate specificity, relative activity of PSOMT1: 100% activity = 1.5 pmoles/sec/mg total protein, radioassay; for Vmax Substrate / kcat Substrate / pH optimum of methylation / ratio kcat/Km / temperature optimum / Km: PSOMT1; for methylated by PSOMT1 (radioassay, in words): one of forty substrates tested
T2 construct: The full-length cDNA generated by RT-PCR was ligated into pFastBac HTa; His6 (N); made in house; host or cells: Spodoptera frugiperda Sf9 (baculovirus, pFastBac HTa)
T2 sequence (Q6WUC2 whole entry): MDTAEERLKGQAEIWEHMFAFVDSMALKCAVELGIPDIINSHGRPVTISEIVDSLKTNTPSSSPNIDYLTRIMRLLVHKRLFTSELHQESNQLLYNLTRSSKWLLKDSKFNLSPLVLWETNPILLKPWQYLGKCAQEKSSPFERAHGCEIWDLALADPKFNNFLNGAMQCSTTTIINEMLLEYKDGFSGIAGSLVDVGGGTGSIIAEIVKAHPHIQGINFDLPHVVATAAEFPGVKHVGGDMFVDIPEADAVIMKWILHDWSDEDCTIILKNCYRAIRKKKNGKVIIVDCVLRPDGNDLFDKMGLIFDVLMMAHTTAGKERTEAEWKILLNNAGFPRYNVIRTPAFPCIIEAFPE
Source text: (§3) Heterologous Expression and Enzyme Purification—The full-length cDNA generated by RT-PCR was ligated into pFastBac HTa that had been digested with restriction endonucleases BamHI and NotI. The recombinant plasmid was transposed into baculovirus DNA in the Escherichia coli strain DH10BAC (Life Technologies) and then transfected into Spodoptera frugiperda Sf9 cells according to the manufacturer's instructions. The insect cells were propagated and the recombinant virus was amplified according to (16,17). INSECT-XPRESS serum-free medium (Bio Whittaker) was used in the enzyme expression experiments.
(§4) After infection of 20 ml suspension grown insect cells had proceded for 3-4 days at 28° C. and 130 rpm, the cells were removed by centrifugation under sterile conditions at 900× g for 5 min at 4° C. All subsequent steps were performed at 4° C. The pellet was discarded and to the medium was added 0.73 g NaCl, 2.5 ml glycerol and 50 μl […]-mercaptoethanol. The pH was adjusted to 7.0 with 1.0 M NaOH. The His-tagged O-methyltransferase was then purified by affinity chromatography using a cobalt resin (Talon, Clontech) according to the manufacturer's instructions.
(§5) Enzyme assay and product identification: The O-methylation reactions catalysed by the two O-methyltransferases were assayed at least two times in duplicate according to Rüffer et al. (1983a; 1983b) as follows. Substrate (25 nmol), [methyl-3H]-AdoMet (20,000 dpm, 0.4 fmol), AdoMet (10 nmol) Tris/HC1 buffer pH 8.0 (10 μmol), ascorbate (5 μmol) and 5-10 μg of enzyme were incubated in a total volume of 150 μl at 35° C. for 5-60 min. The enzymic reaction was terminated by addition of 200 μl ethylacetate. The organic phase ([…]) was added to 3 ml high flash point liquid scintillation cocktail (Packard) and the radioactivity quantified with a Beckman LS6000TA liquid scintillation counter.
(§6) General Methods—Total RNA was isolated and RNA gels were run and blotted as described previously (20). Genomic DNA was isolated and DNA gels were run and blotted according to (21). cDNA clones were labeled by PCR labeling with [[…]-^32P]dATP. Hybridized RNA on RNA gel blots and DNA on DNA gel blots were visualized with a STORM phosphor imager (Molecular Dynamics). The entire nucleotide sequence on both DNA strands of the full-length clone was determined by dideoxy cycle sequencing using internal DNA sequences for the design of deoxyoligonucleotides as sequencing primers. Saturation curves and double reciprocal plots were constructed with the Fig. P program Version 2.7 (Biosoft, Cambridge, UK). The influence of pH on enzyme activity was monitored in sodium citrate (pH 4-6), sodium phosphate (pH 6-7.0) and Tris-HCl (pH 7.0-9), glycine/NaOH (pH 9-10.5) buffered solutions.

[3] = molecular target: T1, PSOMT2 ((R,S)-norcoclaurine 6-O-methyltransferase); assay: Radioassay of recombinant PSOMT2 with [methyl-3H]-AdoMet (substrate specificity, kinetics, pH and temperature optima); settings: for Substrate specificity, relative activity of PSOMT2: 100% activity = 2.0 pmoles/sec/mg total protein, radioassay; for Vmax Substrate / kcat Substrate / kcat/Km ratio relative to that obtained for (R,S)-norcoclaurine / pH optimum of methyl transfer / Km: PSOMT2; for methylated by PSOMT2 (radioassay, in words): one of forty substrates tested
Source text: as §3, §4, §5, §6

[4] = molecular target: T2, PSOMT1 ((R,S)-reticuline 7-O-methyltransferase); assay: HPLC-MS identification of enzymic products of PSOMT1; settings: for position of O-methylation by PSOMT1: HPLC-MS of enzymic product
Description: as §1, §2

[5] = co-substrate AdoMet with the named substrate, read-out: Km AdoMet

| SMILES | position of O-methylation by PSOMT2 [1] | Substrate specificity, relative activity of PSOMT1 [2] | Substrate specificity, relative activity of PSOMT2 [3] [%] | Vmax Substrate [3] [pmol/s] | kcat Substrate [3] [s⁻¹] | kcat/Km ratio relative to that obtained for (R,S)-norcoclaurine [3] [%] | pH optimum of methyl transfer [3] | Km [3, 5] [µM] | Km ([3]; read-out: Km Substrate) [µM] | methylated by PSOMT2 (radioassay, in words) [3] | Vmax Substrate [2] [pmol/s] | kcat Substrate [2] [s⁻¹] | pH optimum of methylation [2] | ratio kcat/Km [2] [M⁻¹ s⁻¹] | temperature optimum [2] [°C] | Km [2, 5] [µM] | Km ([2]; read-out: Km Substrate) [µM] | methylated by PSOMT1 (radioassay, in words) [2] | position of O-methylation by PSOMT1 [4] | share of product that is double methylated 7,4′-O-dimethylorientaline (laudanosine) and monomethylated 4′-O-methylorientaline ([4]; PSOMT1, main product 7-O-methylorientaline) |
| --- | --- | --- | --- | --- | --- | --- | --- | --- | --- | --- | --- | --- | --- | --- | --- | --- | --- | --- | --- | --- |
| COc1ccc(C[C@H]2NCCc3cc(O)c(OC)cc32)cc1O [(R)-Norprotosinomenine] | at C-6 | 0% | 26 | 1 | 0.02 | 55 | 7.5 | 200 | 5 | methylating |  |  |  |  |  |  |  |  |  |  |
| COc1ccc(C[C@@H]2NCCc3cc(O)c(OC)cc32)cc1O [(S)-Norprotosinomenine] | at C-6 | 0% | 26 | 1 | 0.02 | 55 | 7.5 | 260 | 5 | methylating |  |  |  |  |  |  |  |  |  |  |
| COc1ccc(C[C@H]2c3cc(O)c(OC)cc3CCN2C)cc1O [(S)-Reticuline] |  | 100^a % | 0 |  |  |  |  |  |  |  | 4 | 0.07 | 8.0 | 4500 | 37 | 360 | 16 | methylates | O-methylated at C-7 |  |
| COc1cc(CC2c3cc(OC)c(O)cc3CCN2C)ccc1O (racemic) [(R,S)-Isoorientaline] | at C-6 | 46% | 47 | 2 | 0.03 |  | 7.5 | 280 | 29 | methylating | 1 | 0.02 | 7.5-9.0 | 1440 |  | 260 | 17 | methylates | O-methylated by PSOMT1 at C-6 |  |
| COc1ccc(C[C@@H]2c3cc(OC)c(O)cc3CCN2C)cc1O [(R)-Protosinomenine] |  | 52% | 0 |  |  |  |  |  |  |  | 2 | 0.03 | 9.0 | 1670 | 39 | 320 | 16 | methylates | O-methylated by PSOMT1 at C-6 |  |
| COc1ccc(C[C@@H]2c3cc(O)c(OC)cc3CCN2C)cc1O [(R)-Reticuline] |  | 100^a % | 0 |  |  |  |  |  |  |  | 4 | 0.07 | 8.0 | 4200 | 37 | 310 | 17 | methylates | O-methylated at C-7 |  |
| COc1cc(C[C@@H]2c3cc(O)c(OC)cc3CCN2C)ccc1O (racemic) [(R,S)-Orientaline] |  | 48% | 0 |  |  |  |  |  |  |  |  |  |  |  |  |  |  | methylates | O-methylated at C-7 | Approximately 1% |
